# Laboratory results from publication PMC5218480 (PLoS ONE, 2017).
# Tested on: MV-4-11 cells
# Assay: Gene expression microarray analysis (Affymetrix PrimeView) and GSEA
# Type: cell-based, human
# Set-up: RFU PODN (11730768_x_at) / Fold change /veh PODN (11730768_x_at) / RFU LINC00158 (11744669_a_at) / Fold change /veh LINC00158 (11744669_a_at) / RFU DUSP10 (11751237_a_at) / Fold change /veh DUSP10 (11751237_a_at) / RFU ID3 (11757404_x_at) / Fold change /veh ID3 (11757404_x_at) / RFU PLEKHG5 (11737974_s_at) / Fold change /veh PLEKHG5 (11737974_s_at) / RFU LRRC4B (11730491_at) / Fold change /veh LRRC4B (11730491_at) / RFU GIMAP4 (11747438_a_at) / Fold change /veh GIMAP4 (11747438_a_at) / RFU KRT8 (11758183_x_at) / Fold change /veh KRT8 (11758183_x_at) / RFU CNN1 (11734310_a_at) / Fold change /veh CNN1 (11734310_a_at) / RFU VPS37D (11726825_at) / Fold change /veh VPS37D (11726825_at) / RFU C10orf10 (11716522_x_at) / Fold change /veh C10orf10 (11716522_x_at) / RFU KIR2DL2 /// KIR2DL4 /// KIR2DL5A /// KIR2DL5B /// KIR2DS1 /// KIR2DS2 /// KIR2DS3 /// KIR2DS4 /// KIR3DL3 /// KIR3DL3 /// KIR3DS1 (11738374_at) / Fold change /veh KIR2DL2 /// KIR2DL4 /// KIR2DL5A /// KIR2DL5B /// KIR2DS1 /// KIR2DS2 /// KIR2DS3 /// KIR2DS4 /// KIR3DL3 /// KIR3DL3 /// KIR3DS1 (11738374_at) / RFU C1QL1 (11718748_at) / Fold change /veh C1QL1 (11718748_at) / RFU TMPRSS4 (11747572_a_at) / Fold change /veh TMPRSS4 (11747572_a_at) / RFU HAMP (11756126_x_at) / Fold change /veh HAMP (11756126_x_at) / RFU RNFT2 (11725882_a_at) / Fold change /veh RNFT2 (11725882_a_at) / RFU NR4A2 (11747474_a_at) / Fold change /veh NR4A2 (11747474_a_at) / RFU ABCC12 (11746883_a_at) / Fold change /veh ABCC12 (11746883_a_at) / RFU TMEM136 (11760407_x_at) / Fold change /veh TMEM136 (11760407_x_at) / RFU CLDN22 /// WWC2 (11732394_at) / Fold change /veh CLDN22 /// WWC2 (11732394_at) / RFU HLA-DPB1 (11760878_x_at) / Fold change /veh HLA-DPB1 (11760878_x_at) / RFU SPINT1 (11716480_a_at) / Fold change /veh SPINT1 (11716480_a_at) / RFU GAP43 (11754022_s_at) / Fold change /veh GAP43 (11754022_s_at) / RFU A4GNT (11735810_at) / Fold change /veh A4GNT (11735810_at) / RFU PRB3 (11715151_x_at) / Fold change /veh PRB3 (11715151_x_at) / RFU TUBB4B (11761932_at) / Fold change /veh TUBB4B (11761932_at) / RFU CAPN14 (11732068_a_at) / Fold change /veh CAPN14 (11732068_a_at) / RFU TMCC2 (11721928_a_at) / Fold change /veh TMCC2 (11721928_a_at) / RFU IRGQ (11745062_a_at) / Fold change /veh IRGQ (11745062_a_at) / RFU FAM174B (11720279_a_at) / Fold change /veh FAM174B (11720279_a_at) / RFU TMPRSS4 (11748680_a_at) / Fold change /veh TMPRSS4 (11748680_a_at) / RFU FAM212B (11763350_a_at) / Fold change /veh FAM212B (11763350_a_at) / RFU PLEKHG5 (11743358_a_at) / Fold change /veh PLEKHG5 (11743358_a_at) / RFU ZSCAN30 (11745921_a_at) / Fold change /veh ZSCAN30 (11745921_a_at) / RFU CMKLR1 (11741424_a_at) / Fold change /veh CMKLR1 (11741424_a_at) / RFU LOC101060620 /// MAPK8IP1 (11723275_at) / Fold change /veh LOC101060620 /// MAPK8IP1 (11723275_at) / RFU SPTSSB (11747773_x_at) / Fold change /veh SPTSSB (11747773_x_at) / RFU PRSS12 (11739890_at) / Fold change /veh PRSS12 (11739890_at) / RFU BIN1 (11741810_x_at) / Fold change /veh BIN1 (11741810_x_at) / RFU WNT11 (11732464_a_at) / Fold change /veh WNT11 (11732464_a_at) / RFU C10orf10 (11716521_a_at) / Fold change /veh C10orf10 (11716521_a_at) / RFU C5orf56 (11738089_at) / Fold change /veh C5orf56 (11738089_at) / RFU CYB561 (11721691_x_at) / Fold change /veh CYB561 (11721691_x_at) / RFU ANKRD19P (11752326_a_at) / Fold change /veh ANKRD19P (11752326_a_at) / RFU OR2T12 /// OR2T33 /// OR2T8 (11738714_s_at) / Fold change /veh OR2T12 /// OR2T33 /// OR2T8 (11738714_s_at) / RFU VCAN (11748164_a_at) / Fold change /veh VCAN (11748164_a_at) / RFU JSRP1 (11732532_at) / Fold change /veh JSRP1 (11732532_at) / RFU KRTAP10-11 (11738290_x_at) / Fold change /veh KRTAP10-11 (11738290_x_at) / RFU MYO3A (11730013_a_at) / Fold change /veh MYO3A (11730013_a_at) / RFU EBF3 (11725865_a_at) / Fold change /veh EBF3 (11725865_a_at) / RFU CAMK2N1 (11719241_x_at) / Fold change /veh CAMK2N1 (11719241_x_at) / RFU C5orf56 (11738088_a_at) / Fold change /veh C5orf56 (11738088_a_at) / RFU OLFML3 (11715873_a_at) / Fold change /veh OLFML3 (11715873_a_at) / RFU LOC100653217 /// NTM (11731650_a_at) / Fold change /veh LOC100653217 /// NTM (11731650_a_at) / RFU MAPK11 (11762145_a_at) / Fold change /veh MAPK11 (11762145_a_at) / RFU FIZ1 (11724087_x_at) / Fold change /veh FIZ1 (11724087_x_at) / RFU OASL (11726364_x_at) / Fold change /veh OASL (11726364_x_at) / RFU SOX15 (11748057_x_at) / Fold change /veh SOX15 (11748057_x_at) / RFU CD79A (11719716_a_at) / Fold change /veh CD79A (11719716_a_at) / RFU HIST1H1D (11736915_at) / Fold change /veh HIST1H1D (11736915_at) / RFU CASKIN2 (11723855_a_at) / Fold change /veh CASKIN2 (11723855_a_at) / RFU LOC730098 (11760151_x_at) / Fold change /veh LOC730098 (11760151_x_at) / RFU OR4N2 (11742367_at) / Fold change /veh OR4N2 (11742367_at) / RFU PRRT2 (11749266_a_at) / Fold change /veh PRRT2 (11749266_a_at) / RFU SNX32 (11753110_a_at) / Fold change /veh SNX32 (11753110_a_at) / RFU CDHR5 (11726645_a_at) / Fold change /veh CDHR5 (11726645_a_at) / RFU RCAN1 (11760418_a_at) / Fold change /veh RCAN1 (11760418_a_at) / RFU FAM167A (11723789_a_at) / Fold change /veh FAM167A (11723789_a_at) / RFU FAM26E (11764081_at) / Fold change /veh FAM26E (11764081_at) / RFU ISYNA1 (11749810_s_at) / Fold change /veh ISYNA1 (11749810_s_at) / RFU ACY1 (11761880_at) / Fold change /veh ACY1 (11761880_at) / RFU 11764098_at / Fold change /veh 11764098_at / RFU SAMD14 (11745864_x_at) / Fold change /veh SAMD14 (11745864_x_at) / RFU NPB (11741838_a_at) / Fold change /veh NPB (11741838_a_at) / RFU TMPRSS6 (11731388_a_at) / Fold change /veh TMPRSS6 (11731388_a_at) / RFU KRTAP10-2 (11738614_at) / Fold change /veh KRTAP10-2 (11738614_at) / RFU ARHGAP8 /// PRR5-ARHGAP8 (11727945_x_at) / Fold change /veh ARHGAP8 /// PRR5-ARHGAP8 (11727945_x_at) / RFU KRTAP5-7 /// NADSYN1 (11734609_at) / Fold change /veh KRTAP5-7 /// NADSYN1 (11734609_at) / RFU RASL12 (11751679_a_at) / Fold change /veh RASL12 (11751679_a_at) / RFU CDKN2B (11736163_a_at) / Fold change /veh CDKN2B (11736163_a_at) / RFU PRF1 (11729649_at) / Fold change /veh PRF1 (11729649_at) / RFU, ZNF638 /// ZNF638-IT1 / Fold change vs veh, ZNF638 /// ZNF638-IT1 / RFU, PANK3 / Fold change vs veh, PANK3 / RFU, SH3YL1 / Fold change vs veh, SH3YL1 / RFU, ZEB2 / Fold change vs veh, ZEB2 / RFU, NRIP1 / Fold change vs veh, NRIP1 / RFU, PTTG1IP / Fold change vs veh, PTTG1IP / RFU, CAPN2 / Fold change vs veh, CAPN2 / RFU, MED14 / Fold change vs veh, MED14 / RFU, SNORA58 / Fold change vs veh, SNORA58 / RFU, C1orf63 / Fold change vs veh, C1orf63 / RFU, LRRFIP1 / Fold change vs veh, LRRFIP1 / RFU, NDUFAF7 / Fold change vs veh, NDUFAF7 / RFU, SLC12A2 / Fold change vs veh, SLC12A2 / RFU, IBTK / Fold change vs veh, IBTK / RFU, ESF1 / Fold change vs veh, ESF1 / Fold change vs veh, TMEM50B / RFU, TAOK1 / Fold change vs veh, TAOK1 / RFU, ACBD3 / Fold change vs veh, ACBD3 / RFU, TMA16 / Fold change vs veh, TMA16 / RFU, RWDD3 / Fold change vs veh, RWDD3 / RFU, BCAT1 / Fold change vs veh, BCAT1 / RFU, EDEM3 / Fold change vs veh, EDEM3 / RFU, TMEM33 / Fold change vs veh, TMEM33 / RFU, WDR75 / Fold change vs veh, WDR75 / RFU, AHCTF1 / Fold change vs veh, AHCTF1 / RFU, TFRC / Fold change vs veh, TFRC / RFU, ZDHHC17 / Fold change vs veh, ZDHHC17 / RFU, NOM1 / Fold change vs veh, NOM1 / RFU, ARL8B / Fold change vs veh, ARL8B / RFU, ZBTB11 / Fold change vs veh, ZBTB11 / RFU, TAMM41 / Fold change vs veh, TAMM41 / RFU, KIAA1704 /// LOC100996395 / Fold change vs veh, KIAA1704 /// LOC100996395 / RFU, ING1 / Fold change vs veh, ING1 / RFU, TRMT61B / Fold change vs veh, TRMT61B / RFU, FUBP3 / Fold change vs veh, FUBP3 / RFU, TP53 / Fold change vs veh, TP53 / RFU, TNKS2 / Fold change vs veh, TNKS2 / RFU, ZFP14 / Fold change vs veh, ZFP14 / RFU, ACTR2 / Fold change vs veh, ACTR2 / RFU, PPP3R1 / Fold change vs veh, PPP3R1 / RFU, PIK3R1 / Fold change vs veh, PIK3R1 / RFU, HNRNPA1 / Fold change vs veh, HNRNPA1 / RFU, RNF170 / Fold change vs veh, RNF170 / RFU, ZNF28 / Fold change vs veh, ZNF28 / RFU, RNGTT / Fold change vs veh, RNGTT / RFU, OGT / Fold change vs veh, OGT / RFU, BRD1 / Fold change vs veh, BRD1 / RFU, MARS / Fold change vs veh, MARS / RFU, ZNF655 / Fold change vs veh, ZNF655 / RFU, FAHD1 / Fold change vs veh, FAHD1 / RFU, BDP1 / Fold change vs veh, BDP1 / RFU, LRRCC1 / Fold change vs veh, LRRCC1 / RFU, ARID1A / Fold change vs veh, ARID1A / RFU, ZNF146 / Fold change vs veh, ZNF146 / RFU, ZNF330 / Fold change vs veh, ZNF330 / RFU, GPN3 / Fold change vs veh, GPN3 / RFU, C9orf123 / Fold change vs veh, C9orf123 / RFU, N4BP2L2 / Fold change vs veh, N4BP2L2 / RFU, ARFIP1 / Fold change vs veh, ARFIP1 / RFU, FAM179B / Fold change vs veh, FAM179B / RFU, BCL10 / Fold change vs veh, BCL10 / RFU, UHRF1BP1L / Fold change vs veh, UHRF1BP1L / RFU, BET1 / Fold change vs veh, BET1 / RFU, CNOT2 / Fold change vs veh, CNOT2 / RFU, ZNF268 / Fold change vs veh, ZNF268 / Fold change vs veh, ZNF507 / RFU, DGCR2 / Fold change vs veh, DGCR2 / RFU, WDSUB1 / Fold change vs veh, WDSUB1 / Fold change vs veh, HSP90B1 /// MIR3652 / RFU, ADSS / Fold change vs veh, ADSS / RFU, GK / Fold change vs veh, GK / RFU, ZNF148 / Fold change vs veh, ZNF148 / RFU, TAF9 / Fold change vs veh, TAF9 / RFU, SLC1A5 / Fold change vs veh, SLC1A5 / RFU, SLMO2 / Fold change vs veh, SLMO2 / RFU, ABCC4 / Fold change vs veh, ABCC4 / RFU, LOC101060439 /// RAP1B / Fold change vs veh, LOC101060439 /// RAP1B / RFU, RFX7 / Fold change vs veh, RFX7 / RFU, GTPBP10 / Fold change vs veh, GTPBP10 / RFU, CNEP1R1 / Fold change vs veh, CNEP1R1 / RFU, BIVM-ERCC5 /// ERCC5 / Fold change vs veh, BIVM-ERCC5 /// ERCC5 / RFU, ILF3 / Fold change vs veh, ILF3 / RFU 11762660_at / Fold change /veh 11762660_at / RFU VCAN (11757783_s_at) / Fold change /veh VCAN (11757783_s_at) / RFU DDX43 (11728927_at) / Fold change /veh DDX43 (11728927_at) / RFU KRT8 (11758188_x_at) / Fold change /veh KRT8 (11758188_x_at) / RFU NKD1 (11759106_at) / Fold change /veh NKD1 (11759106_at) / RFU SRD5A1 (11742802_a_at) / Fold change /veh SRD5A1 (11742802_a_at) / RFU TPSAB1 /// TPSB2 (11721975_s_at) / Fold change /veh TPSAB1 /// TPSB2 (11721975_s_at) / RFU GSTM3 (11746129_a_at) / Fold change /veh GSTM3 (11746129_a_at) / RFU IL23R (11737362_x_at) / Fold change /veh IL23R (11737362_x_at) / RFU TMEM51 (11727254_a_at) / Fold change /veh TMEM51 (11727254_a_at) / RFU PIWIL2 (11732686_x_at) / Fold change /veh PIWIL2 (11732686_x_at) / RFU ORM1 (11744905_x_at) / Fold change /veh ORM1 (11744905_x_at) / RFU CCDC152 (11743942_at) / Fold change /veh CCDC152 (11743942_at) / RFU ECM1 (11717891_a_at) / Fold change /veh ECM1 (11717891_a_at) / RFU IL23R (11748794_a_at) / Fold change /veh IL23R (11748794_a_at) / RFU TNFAIP8L3 (11732012_x_at) / Fold change /veh TNFAIP8L3 (11732012_x_at) / RFU MBOAT4 (11741988_at) / Fold change /veh MBOAT4 (11741988_at) / RFU 11764193_at / Fold change /veh 11764193_at / RFU TMEM53 (11763286_at) / Fold change /veh TMEM53 (11763286_at) / RFU MAGEB2 (11727129_at) / Fold change /veh MAGEB2 (11727129_at) / RFU TMEM200A (11744735_a_at) / Fold change /veh TMEM200A (11744735_a_at) / RFU CCDC152 (11751479_a_at) / Fold change /veh CCDC152 (11751479_a_at) / RFU FAM211A (11726209_a_at) / Fold change /veh FAM211A (11726209_a_at) / RFU RGS16 (11746705_a_at) / Fold change /veh RGS16 (11746705_a_at) / RFU VCAN (11755009_s_at) / Fold change /veh VCAN (11755009_s_at) / RFU RHOB (11743442_s_at) / Fold change /veh RHOB (11743442_s_at) / RFU RGS16 (11720943_a_at) / Fold change /veh RGS16 (11720943_a_at) / RFU RGS16 (11720944_at) / Fold change /veh RGS16 (11720944_at) / RFU, VPS4B / Fold change vs veh, VPS4B / RFU, CREB1 / Fold change vs veh, CREB1 / RFU, DNAJC13 / Fold change vs veh, DNAJC13 / RFU, GNAQ / Fold change vs veh, GNAQ / RFU, CDK5R1 / Fold change vs veh, CDK5R1 / RFU, ZRANB3 / Fold change vs veh, ZRANB3 / RFU, CUL4A / Fold change vs veh, CUL4A / RFU, CCNY / Fold change vs veh, CCNY / RFU, UFL1 / Fold change vs veh, UFL1 / RFU, COG3 / Fold change vs veh, COG3 / RFU, DIAPH2 / Fold change vs veh, DIAPH2 / RFU, SKA2 / Fold change vs veh, SKA2 / RFU, AFF3 / Fold change vs veh, AFF3 / RFU, LMF1 / Fold change vs veh, LMF1 / RFU, IPO11 / Fold change vs veh, IPO11 / RFU, DFFB / Fold change vs veh, DFFB / RFU, FOXP1 / Fold change vs veh, FOXP1 / RFU, CARD8 / Fold change vs veh, CARD8 / RFU, STRN3 / Fold change vs veh, STRN3 / RFU, ADK / Fold change vs veh, ADK / RFU, RASSF2 / Fold change vs veh, RASSF2 / RFU, WIPF1 / Fold change vs veh, WIPF1 / RFU, LARP1B / Fold change vs veh, LARP1B / RFU, RASA1 / Fold change vs veh, RASA1 / RFU, RB1 / Fold change vs veh, RB1 / RFU, PPFIA1 / Fold change vs veh, PPFIA1 / RFU, MAT2A / Fold change vs veh, MAT2A / RFU, CCT5 / Fold change vs veh, CCT5 / RFU, WDR92 / Fold change vs veh, WDR92 / RFU, CUX1 / Fold change vs veh, CUX1 / RFU, TTC7A / Fold change vs veh, TTC7A / RFU, TMEM135 / Fold change vs veh, TMEM135 / RFU, DEPTOR / Fold change vs veh, DEPTOR / RFU, CPM / Fold change vs veh, CPM / RFU, DNAJB6 / Fold change vs veh, DNAJB6 / RFU, CACNA2D3 / Fold change vs veh, CACNA2D3 / RFU, DTX4 / Fold change vs veh, DTX4 / RFU, TFCP2 / Fold change vs veh, TFCP2 / RFU, GMCL1 /// GMCL1P1 / Fold change vs veh, GMCL1 /// GMCL1P1 / RFU, AEBP2 / Fold change vs veh, AEBP2 / RFU, SNHG1 /// SNORD22 /// SNORD25 /// SNORD26 /// SNORD27 /// SNORD28 /// SNORD29 /// SNORD31 / Fold change vs veh, SNHG1 /// SNORD22 /// SNORD25 /// SNORD26 /// SNORD27 /// SNORD28 /// SNORD29 /// SNORD31 / Fold change (Aza/veh), C12orf56 (ProbeSet 11735607_a_at) / Fold change (ACY-1035/veh), C12orf56 (ProbeSet 11735607_a_at) / Fold change (Aza/veh), FGFR1OP (ProbeSet 11751329_s_at) / Fold change (ACY-1035/veh), FGFR1OP (ProbeSet 11751329_s_at) / Fold change (Aza/veh), VPS36 (ProbeSet 11739960_a_at) / Fold change (ACY-1035/veh), VPS36 (ProbeSet 11739960_a_at) / RFU SYPL1 (11715823_x_at) / Fold change /veh SYPL1 (11715823_x_at) / RFU IGFBP7 (11715501_s_at) / Fold change /veh IGFBP7 (11715501_s_at) / RFU REEP3 (11722064_at) / Fold change /veh REEP3 (11722064_at) / RFU IGLL1 (11728026_x_at) / Fold change /veh IGLL1 (11728026_x_at): dose or concentration left out as unconfirmed
# Details: ProbeSet 11763895_x_at; LIST B
smiles,measurement,value
Nc1ccc(-c2cccs2)cc1NC(=O)c1ccc2c(c1)cc(C1CC1)n2CCN1CCOCC1 [ACY-1035],"Fold change vs veh, SNORA58",0.89
